# Source: ChEMBL document CHEMBL4330129 (Bioorg Med Chem, 2019)
# Tests used:
# Keap1/Nrf2 = Keap1/Nrf2 (Homo sapiens, UniProt Q14145+Q16236); experiment: Binding affinity to FLAG/His-tagged Keap1 (unknown origin)/biotinylated full-length FLAG/His/Tev/Avi-tagged NRF2 (unknown origin) expressed in baculovirus infected Sf9 insect cells measured after 1 hr by TR-FRET assay
# [1] = Binding affinity to FLAG/His-tagged Keap1 (unknown origin)/biotinylated full-length FLAG/His/Tev/Avi-tagged Cul3 (unknown origin) expressed in baculovirus infected Sf9 insect cells measured after 1 hr by TR-FRET assay; set-up: species or system Homo sapiens
# [2] = Kinetic solubility of the compound at pH 7.4 by CLND method; type: physicochemical; conditions: buffer, read-out: Kinetic_solubility
# [3] = Lipophilicity, log D of the compound at pH 7.4 by chromatographic method; type: physicochemical; conditions: buffer
# Homo sapiens = species: Homo sapiens; experiment: Activation of Keap1/Cul3/Nrf2 in NHBE cells assessed as induction of HO-1 gene expression at 10 uM after 24 hrs by RT-PCR analysis relative to SFN; type: cell-based
# Keap1/Nrf2, sequence (Q16236 whole entry): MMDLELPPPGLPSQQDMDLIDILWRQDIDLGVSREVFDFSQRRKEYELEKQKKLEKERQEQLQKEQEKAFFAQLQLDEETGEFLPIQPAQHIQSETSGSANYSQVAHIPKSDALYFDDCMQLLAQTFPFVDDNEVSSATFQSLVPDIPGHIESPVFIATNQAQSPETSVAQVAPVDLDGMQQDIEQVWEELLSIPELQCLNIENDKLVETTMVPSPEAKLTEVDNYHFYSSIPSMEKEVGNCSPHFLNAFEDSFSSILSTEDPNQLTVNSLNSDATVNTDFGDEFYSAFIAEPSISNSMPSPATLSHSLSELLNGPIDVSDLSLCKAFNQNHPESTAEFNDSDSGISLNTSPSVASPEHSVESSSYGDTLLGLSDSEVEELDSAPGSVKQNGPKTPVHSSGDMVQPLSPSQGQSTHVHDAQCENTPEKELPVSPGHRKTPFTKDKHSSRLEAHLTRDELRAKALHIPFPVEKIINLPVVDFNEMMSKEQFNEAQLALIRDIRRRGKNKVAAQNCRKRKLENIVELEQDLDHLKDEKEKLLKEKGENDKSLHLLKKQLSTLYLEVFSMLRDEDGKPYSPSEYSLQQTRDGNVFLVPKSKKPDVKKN
# Keap1/Nrf2, sequence (Q14145 whole entry): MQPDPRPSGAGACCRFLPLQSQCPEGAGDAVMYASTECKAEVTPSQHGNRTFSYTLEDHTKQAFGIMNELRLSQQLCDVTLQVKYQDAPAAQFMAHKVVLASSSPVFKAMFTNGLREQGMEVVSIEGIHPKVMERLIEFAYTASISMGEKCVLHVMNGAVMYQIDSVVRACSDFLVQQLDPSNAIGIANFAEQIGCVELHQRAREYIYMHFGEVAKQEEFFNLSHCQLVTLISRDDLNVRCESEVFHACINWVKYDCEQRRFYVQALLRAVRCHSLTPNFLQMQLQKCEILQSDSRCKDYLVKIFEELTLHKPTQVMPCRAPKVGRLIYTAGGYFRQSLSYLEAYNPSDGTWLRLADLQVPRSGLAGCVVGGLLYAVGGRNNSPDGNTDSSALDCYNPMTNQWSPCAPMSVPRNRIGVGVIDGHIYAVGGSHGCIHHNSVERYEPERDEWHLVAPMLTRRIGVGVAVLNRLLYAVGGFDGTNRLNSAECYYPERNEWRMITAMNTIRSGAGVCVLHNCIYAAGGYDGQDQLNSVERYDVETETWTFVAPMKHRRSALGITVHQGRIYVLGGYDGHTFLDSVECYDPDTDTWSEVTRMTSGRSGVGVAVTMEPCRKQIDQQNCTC
SMILES,IC50 (Keap1/Nrf2),pIC50 [1],solubility kinetic [2],chromatographic logD [3],fold change (FC) (Homo sapiens)
CC(C)(C)OC(=O)N1CCC(SC(=S)NCCCCNC(=O)NCc2ccccc2)CC1,7.94 µM,4.7,34 µM,6.05,18.6
CN1CCC(SC(=S)NCCCCNC(=O)Nc2ccc3ncsc3c2)CC1,7.94 µM,5.4,–,1.91,25.5
CN1CCC(SC(=S)NCCCCNC(=O)NCc2ccccc2)CC1,20 µM,4.9,≥ 451 µM,2.4,14.5
CN1CCC(SC(=S)NCCCCNC(=O)Nc2ccc3nccnc3c2)CC1,10 µM,5.1,≥ 400 µM,1.52,102
CC(=O)NCCS(=O)(=O)CCCCN=C=S,> 100 µM,4.2,≥ 422 µM,1.8,0.37
C[S+]([O-])CCCCCN=C=S (stereo not drawn),> 100 µM,4.1,≥ 458 µM,3.12,0.35
CN(C)C(=O)/C(C#N)=C/CCCCCS(C)(=O)=O,–,–,–,–,0.18
CC[S+]([O-])C(=O)N(CCCC[S+](C)[O-])Cc1ccccc1 (stereo not drawn),–,–,–,–,0.27
CN(C)C(=O)CCCCN=C=S,> 100 µM,4.2,–,–,0.71
O=S(=O)(CCCCN=C=S)c1ccccc1,50.1 µM,4.6,≥ 364 µM,4.92,4.31
CC(C)(C)OC(=O)N1CCC(SC(=S)NCCCCNC(=O)Nc2ccc3ncsc3c2)CC1,31.6 µM,4.7,–,5.45,18.3
CC(=O)N(C)CC[S+]([O-])CCCCN=C=S (stereo not drawn),> 100 µM,< 4,≥ 110 µM,1.51,0.29
C[S+]([O-])CCCCNC(=S)SCCNC(=O)OC(C)(C)C (stereo not drawn),> 100 µM,< 4,≥ 432 µM,3.12,0.58
Cn1cc(CCN=C=S)c2ccccc21,10 µM,5.2,38 µM,7.23,0.04
CS(=O)(=O)N1CCC(CCN=C=S)C1 (stereo not drawn),> 100 µM,4.3,288 µM,3.87,4.27
O=C(NCCCN=C=S)OCc1ccccc1,5.01 µM,5,–,–,32.2
C[S+]([O-])CCCCCCN=C=S (stereo not drawn),> 100 µM,–,≥ 324 µM,0.9,–
O=C(NCCCCN=C=S)NCc1ccccc1,15.8 µM,4.7,247 µM,4.29,6.42
O=S1(=O)CCC(CN=C=S)C1 (stereo not drawn),> 100 µM,4.4,≥ 639 µM,1.82,0.37
CN(C)C(=O)/C=C/CCCCCS(C)(=O)=O,–,–,–,–,0.13
CN1CCC(SC(=S)NCCCCNC(=O)Nc2ccncc2)CC1,20 µM,4.9,≥ 350 µM,1.02,29.8
CN1CCC(SC(=S)NCCCCNC(=O)Nc2ccc3c(c2)OCCO3)CC1,12.6 µM,5,–,2.24,23.6
O=S(=O)(/C=C(\CO)CN1CCC(CN=C=S)CC1)c1ccccc1,25.1 µM,5.6,187 µM,7.09,25.3

SMILES,IC50 (Keap1/Nrf2),pIC50 [1],solubility kinetic [2],chromatographic logD [3],fold change (FC) (Homo sapiens)
C[S+]([O-])CCCCNC(=S)SCCSC(=S)NCCCC[S+](C)[O-] (stereo not drawn),> 100 µM,4.3,≥ 425 µM,1.9,0.74
O=S(=O)(CC1(N2CCC(CN=C=S)CC2)COC1)c1ccccc1,39.8 µM,4.7,341 µM,5.41,2.98
CC(C)(C)OC(=O)N1CCC(SC(=S)NCCCCNC(=O)Nc2cccnc2)CC1,50.1 µM,4.3,114 µM,4.97,2.88
O=C(NCCCCN=C=S)Nc1ccc2c(c1)OCCO2,15.8 µM,4.9,131 µM,4.04,0.65
O=C(CCc1ccccc1)NCCCCN=C=S,25.1 µM,4.4,337 µM,2.59,9.84
CCNC(=O)N1CCC(SC(=S)NCCCCNC(=O)NCc2ccccc2)CC1,63.1 µM,4.4,255 µM,3.43,81.8
CN1CCC(SC(=S)NCCCCNC(=O)Nc2cccnc2)CC1,39.8 µM,4.7,≥ 345 µM,1.11,16
CN(C)CC[S+]([O-])CCCCN=C=S (stereo not drawn),> 100 µM,< 4,≥ 219 µM,1.47,0.49
CC(=O)NCC[S+]([O-])CCCCN=C=S (stereo not drawn),> 100 µM,< 4,≥ 180 µM,1.09,0.15
O=C(NCCCCN=C=S)Nc1ccc2scnc2c1,5.01 µM,5.2,–,3.77,3.75
O=C(NCCCCN=C=S)C1CCCCC1,50.1 µM,4.4,369 µM,–,1.13
O=C(CC1CCCCC1)NCCCCN=C=S,25.1 µM,4.8,≥ 413 µM,–,11.5
CN1CCC(SC(=S)NCCCCNC(=O)CC2CCCCC2)CC1,15.8 µM,5,–,3.28,11.5
CSc1c(N(C)CCCC[S+](C)[O-])c(=O)c1=O (stereo not drawn),–,–,–,–,0.14
O=C(NCCCCN=C=S)OCc1ccccc1,12.6 µM,5.1,–,–,0.63
CN(C)C(=O)/C(C#N)=C/CCCCC[S+](C)[O-] (stereo not drawn),–,–,–,–,0.33
CC(=O)NCCCCN=C=S,> 100 µM,4.2,–,–,0.54
CN(C)C(=O)/C=C/CCCCC[S+](C)[O-] (stereo not drawn),–,–,–,–,0.11
COCCOC(=O)NCCCCN=C=S,> 100 µM,< 4,1 µM,–,0.17
CC(C)(C)OC(=O)N1CCC(SC(=S)NCCCCNC(=O)Nc2ccc3c(c2)OCCO3)CC1,31.6 µM,4.4,–,5.79,74.8
CNC(=O)CCCCN=C=S,> 100 µM,4.1,–,–,0.7
CC(=O)NCCSC(=S)NCCCC[S+](C)[O-] (stereo not drawn),> 100 µM,–,≥ 531 µM,0.58,–
